# Data taken from patent publication US11998028B2, “Polypeptide for hydrolytic cleavage of zearalenone and/or zearalenone derivatives, isolated polynucleotide thereof as well as a polypeptide containing an additive, use of same as well as a process” (priority 2013, dated 2024).
# Columns and labels:
# estrogenic effect = details: cited from earlier work
# [1] = tested on: polypeptide (hydrolase / zonase) with sequence ID no. 1, C-terminal 6×His tag; test: Enzyme kinetics of ZEN hydrolysis to HZEN, photometric at 315 nm; format: biochemical; details: ZEN substrate, 50 mM Tris-HCl pH 8.2, 32° C.
# Procedure: The soluble cell lysate in the case of E. coli and/or the culture supernatant in the case of P. pastoris was/were used for determination of the catalytic properties of the polypeptides. To determine the KM value, vmax, kcat and the specific activity, the polypeptides were selectively enriched chromatographically by standard methods over nickel-Sepharose columns. The determination of the protein concentration was performed by means of standard methods, either being calculated by the BCA method (Pierce BCA Protein Assay KitProd #23225) or preferably photometrically with the specific extinction coefficients for the respective proteins that are available online with the ProtParam program at http://web.expasy.org/protparam (Gasteiger E. et al.; Protein Identification and Analysis Tools on the ExPASy Server, in John M. Walker (ed): The Proteomics Protocols Handbook, Humana Press, 2005, pp. 571-607).
# The preparation, enrichment and purification of the polypeptides and/or variants thereof were performed as described in example 1. Degradation of ZEN to HZEN was measured on the basis of the reduction in absorption at the wavelength of 315 nm. […] The extinction coefficients have a strong dependence on pH and therefore the activity must always be measured precisely at the same pH and preferably also in the same matrix. The measurements were performed in a 50 mM Tris-HCl pH=8.2 buffer solution in quartz cuvettes in a wavelength range of 200 to 2500 nm in a UV-VIS photometer (Hitachi U-2001) at 32° C.
# A 2.08 mM ZEN solution (40 vol % ACN+60 vol % H2O) was used as the ZEN substrate stock solution. To prepare this solution, ZEN in crystalline form (Biopure Standard from Romer Labs, article no. 001109, purity at least 98%) was weighed and dissolved accordingly. The ZEN substrate dilutions (0.79 μM, 1.57 μM, 2.36 μM, 3.14 μM, 4.71 μM, 6.28 μM, 7.85 μM, 9.42 μM, 10.99 μM, 12.56 μM, 14.13 μM, 15.71 μM, 17.28 μM and 18.85 μM) were prepared with 50 mM Tris-HCl pH=8.2. The polypeptide solutions were diluted to a final concentration of approximately 70 ng/mL using 50 mM Tris-HCl buffer pH=8.2. The ZEN substrate dilutions were preheated to 32° C. in a water bath.
# 100 μL portions of the respective ZEN substrate dilution were mixed with 0.2 μL polypeptide solution, and the absorption was measured for 5 minutes, whereupon each combination of polypeptide solution and ZEN substrate dilution was measured at least twice.
# Taking into account the extinction coefficients of ZEN and HZEN, the reaction rate was calculated for each substance concentration on the basis of the slope in the absorption over time.
# The designations “KM value” or “Michaelis-Menten constant” relate to a parameter for describing the enzymatic affinity of the units μM or mM, which are calculated with the help of the linear Hanes plots according to H. Bisswang (2002, Enzyme Kinetics, ISBN 3-527-30343-X, page 19), wherein the function “enzyme kinetics, single substrate” in the SigmaPlot 12.0 program is preferably used for this purpose. The designations “catalytic constant of the enzyme reaction” or “kcat value” relate to a parameter for describing the conversion rate of a polypeptide and/or enzyme, which is given in s^−1 and is preferably calculated with the help of the “enzyme kinetic, single substrate” function of the SigmaPlot 12.0 program. The “maximum enzyme rate” or “vmax value” is given in units of μM/s or mM/s and is determined with the help of the linear Hanes plot by analogy with the KM value, wherein the function “enzyme kinetic, single substrate” of the SigmaPlot 12.0 program is preferably used for this.
# The raw data for determination of the enzyme parameters KM, vmax, kcat and the specific activity are given below for the polypeptide having the sequence ID no. 1.
# estrogen receptor = details: cited from earlier work
# [2] = relatively low acute toxicity; cited from earlier work
# [3] = tested on: mammalian animals, in particular pigs; details: cited from earlier work
# pigs = details: cited from earlier work
# cattle = details: cited from earlier work
# [4] = cited from earlier work
compound,measurement,setting,value
"C[C@H]1CCC[C@H](O)CCCCCc2cc(O)cc(O)c2C(=O)O1 [α-ZAL, (7R,11S)-7,15,17-trihydroxy-11-methyl-12-oxabicyclo[12.4.0]octa-deca-1(18),14,16-trien-13-one]",estrogenic effect compared with ZEN,estrogenic effect,much stronger estrogenic effect than ZEN
"C[C@H]1CCCC(=O)CCCCCc2cc(O)cc(O)c2C(=O)O1 [ZAN, (11S)-15,17-dihydroxy-11-methyl-12-oxabicyclo-[12.4.0]octadeca-1(18),14,16-triene-7,13-dione]",estrogenic effect compared with ZEN,estrogenic effect,much stronger estrogenic effect than ZEN
"C[C@H]1CCCC(=O)CCC/C=C/c2cc(O)cc(O)c2C(=O)O1 [ZEN, (2E,11S)-15,17-dihydroxy-11-methyl-12-oxabicyclo[12.4.0]octadeca-1(18),2,14,16-tetraene-7,13-dione]",Km,[1]; Average,0.204 µM
same,Vmax,[1]; Average,0.009343 µM/s
same,kcat,[1]; Average,5.12 s⁻¹
same,Km,[1]; Measurement 1,0.217 µM
same,Vmax,[1]; Measurement 1,0.00993 µM/s
same,kcat,[1]; Measurement 1,5.44 s⁻¹
same,Km,[1]; Measurement 2,0.19 µM
same,Vmax,[1]; Measurement 2,0.008756 µM/s
same,kcat,[1]; Measurement 2,4.79 s⁻¹
same,binding to the estrogen receptor,estrogen receptor,binds to the estrogen receptor
same,oral LD50,[2],"up to 20,000 mg/kg body weight"
same,ZEN concentration in feed resulting in developmental disorders,[3],more than 0.5 ppm
same,ZEN concentration that can result in hyperestrogenicity,pigs,more than 1.5 ppm
same,ZEN concentration blamed for spontaneous abortions,cattle,12 ppm
same,absorption through the mucous membranes,[4]; in particular gastric mucosa and oral mucosa,absorbed rapidly
same,time after oral administration at which ZEN can be detected in blood,[4]; oral administration,30 min
"C[C@H]1CCC[C@H](O)CCC/C=C/c2cc(O)cc(O)c2C(=O)O1 [α-ZEL, (2E,7R,11S)-7,15,17-trihydroxy-11-methyl-12-oxabicyclo[12.4.0]-octadeca-1(18),2,14,16-tetraen-13-one]",estrogenic effect compared with ZEN,estrogenic effect,much stronger estrogenic effect than ZEN
